Reference: US20130035257A1, “MICROFLUIDIC ARRAYS AND METHODS FOR THEIR PREPARATION AND USE” (UNIVERSITY OF BRITISH COLUMBIA, priority 2011, published 2013)

Legend:
[1] = system: human MCF-7 breast tumor cells; details: MCF-7 cells in alginate-poly-L-lysine-alginate microcapsules, MTT assay; cited from earlier work
[2] = system: A549 human lung cells; details: cited from earlier work
[3] = system: LCC6/Her2 breast tumor cells; assay: in vitro; assay type: cell-based
Method: (§1) Doxorubicin (Dox) is an anthracycline molecule that intercalates in DNA and inhibits topoisomerase II. As an anticancer agent, the drug inhibits RNA and DNA synthesis. During on-chip drug testing, the Dox solution was prepared with 0.2% dimethylsulfoxide (DMSO) and DMEM culture medium. After visual confirmation of spheroid formation at four days, the drug-free culture media was replaced with 400, 800, 1200, and 1600 nM Dox solutions. The drug solution was continuously perfused through the device at a rate of 0.25 μl min^−1 for two days. DMSO controls, in which the corresponding amount of DMSO in culture medium with no drug, were also carried out. Toxicity was examined after 48 h of drug dosing by quantifying cell viability.
(§2) Cell viability was indicated with live/dead calcein AM/ethidium homodimer-1 stains (Invitrogen), which were applied through pressure-driven flow control to the cells while they were entrapped in alginate in the microdevice. […]
(§3) All stained samples were imaged using fluorescence microscopy. […] The number of living cells NG was calculated by counting the number of pixels in the green (living cells) channel in the confocal images and normalizing for the size of one cell. The number of dead cells NR was similarly calculated using the red pixels. […]
(§4) The survival rate was calculated as NG/(NG+NR). The proliferation rate is calculated as (N4−N1)/N1 before drug treatment, and as (N6−N4)/N4 after drug treatment, where Nx is the number of cells on the xth day.
(§5) Images from confocal microscopy were used to determine cell survival rate and proliferation inside the three dimensional multicellular aggregates after exposure to different doxorubicin concentrations. […] Doxorubicin was the perfused with (a) 0, (b) 400, (c) 800, (d) 1200, and (e) 1600 nM doxorubicin for two days, and cell viability was measured at the end of that period after staining with a live/dead viability kit and confocal imaging. […] The number of living cells NG was calculated by counting the number of pixels (living cells) channel in the confocal image and normalizing for the size of one cell. […]

[4] = at 25° C.; cited from earlier work
[5] = system: EMT-6 mammary sarcoma cells; details: EMT-6 spheroids created in a spinner flask, different exposure doses; cited from earlier work
[6] = system: LCC6/Her2 cells; assay: MTS assay of cell activity, cells cultured within alginate gel beads; assay type: cell-based, human; details: 48 h treatment with 800 nM doxorubicin
Method: as §1
For LCC6/Her2 cells cultured within alginate gel beads 100, cell activity as measured using the standard MTS assay was 35%, while cell viability as measured using the Live/Dead stains was 83%, in both cases after 48 h treatment with 800 nM doxorubicin. […] Thus, the absolute number of surviving cells, in addition to the percentage of living or dead cells, may be an important parameter in drug screening. This can be obtained by processing the data from image-based high-throughput screening systems.

[7] = in vitro; assay type: cell-based; details: human
Method: as §1, §2, §3, §4, §5

[8] = system: LCC6/Her2 breast tumor cells; assay: Cell proliferation rate of tumor spheroids on-chip from confocal cell counts; assay type: cell-based, human; details: 1600 nM Dox exposure, 2 days
Method: as §1
as §3, with “microscopy. The imaging system consisted of a fluorescent microscope (Nikon TE2000U) and a cooled, color CCD camera (Retiga).” for “microscopy.”
The survival rate was calculated as NG/(NG+NR). The proliferation rate is calculated as (N4−N1)/N1 before drug treatment, and as (N6−N4)/N4 after drug treatment, where Nx is the number of cells on the xth day. […]

In the case of `CO[C@@]12[C@H](COC(N)=O)C3=C(C(=O)C(C)=C(N)C3=O)N1C[C@@H]1N[C@@H]12` [mitomycin C], the “inhibition rates in multicellular spheroids versus monolayers” value [1] is given as “lower inhibition rates in multicellular spheroids than in monolayers”.

In the case of `CC[C@]1(O)C[C@@H]2CN(CCc3c([nH]c4ccccc34)[C@@](C(=O)OC)(c3cc4c(cc3OC)N(C)[C@H]3[C@@](O)(C(=O)OC)[C@H](OC(C)=O)[C@]5(CC)C=CCN6CC[C@]43[C@@H]65)C2)C1` [vinblastine], the “multicellular resistance index, ratio [IC50, spheroid/IC50, monolayer]” value [2] is listed as 6625.

In the case of `CCCCCCCCCCCCCCCC` [Hexadecane, n-hexadecane], the “additional toxicity from droplet formation solvent (survival rate, bead versus microchannel)” value [3] is given as “did not indicate any additional toxicity effects” and the “solubility in the aqueous phase” value [4] is given as 9.0×10^−8 g/100 g water.

For `O=c1[nH]cc(F)c(=O)[nH]1` [5-fluorouracil], the “inhibition rates in multicellular spheroids versus monolayers” value [1] is given as “lower inhibition rates in multicellular spheroids than in monolayers”.

In the case of `COc1cccc2c1C(=O)c1c(O)c3c(c(O)c1C2=O)C[C@@](O)(C(=O)CO)C[C@@H]3O[C@H]1C[C@H](N)[C@H](O)[C@H](C)O1` [doxorubicin, Doxorubicin], the “resistance of spheroids versus monolayer cells” value [5] is listed as “higher resistance”, the “cell activity as measured using the standard MTS assay” value [6] is listed as 35% and the cytotoxicity at 48 h, 1600 nM [7] is listed as 20%. The viability at 48 h, 800 nM [7] was 83%, the “proliferation rate change (FIG. 10)” value [8] was “marked proliferation decrease” and the “inhibition rates in multicellular spheroids versus monolayers” value [1] was “lower inhibition rates in multicellular spheroids than in monolayers”. For the same compound, the “multicellular resistance index, ratio [IC50, spheroid/IC50, monolayer]” value [2] was 35.
